Toxic doses and inconclusive results are not listed.
Test system: BDF1 mice, Lewis lung carcinoma iv, survival T/C
Experiment: NCI In Vivo Anticancer Drug Screen. Data for tumor model Lewis Lung Carcinoma (intravenous) in B6D2F1 (BDF1) mice
Conditions: endpoint: median survival time, higher = longer survival
Protocol: The antitumor activity of compounds was measured in mice bearing transplantable tumors. Survival or tumor size were measured and the results are expressed as the measurement made in the treated group (T) divided by the measurement made in the vehicle treated control group (C). The tumor model used in this assay is Lewis Lung Carcinoma (intravenous) in B6D2F1 (BDF1) mice

[1] = dose: 12.5 mg/kg/injection, schedule: Q01DX009 (ip), vehicle: saline with Tween-80
[2] = dose: 25.0 mg/kg/injection, schedule: Q01DX009 (ip), vehicle: saline with Tween-80
[3] = dose: 50.0 mg/kg/injection, schedule: Q01DX009 (ip), vehicle: saline with Tween-80
[4] = dose: 25.0 mg/kg/injection, schedule: Q01DX009 (ip), vehicle: saline
[5] = dose: 50.0 mg/kg/injection, schedule: Q01DX009 (ip), vehicle: saline
[6] = dose: 100.0 mg/kg/injection, schedule: Q01DX009 (ip), vehicle: saline
[7] = dose: 200.0 mg/kg/injection, schedule: Q01DX009 (ip), vehicle: saline
[8] = dose: 200.0 mg/kg/injection, schedule: Q01DX009 (ip), vehicle: saline with Tween-80
[9] = dose: 100.0 mg/kg/injection, schedule: Q01DX009 (ip), vehicle: saline with Tween-80
[10] = dose: 400.0 mg/kg/injection, schedule: Q01DX009 (ip), vehicle: saline with Tween-80

CCCNC1=C(C)C(=O)C2=C(C1=O)[C@H](COC(N)=O)[C@]1(OC)[C@@H]3N[C@@H]3CN21
T/C (dose: 0.39 mg/kg/injection, schedule: Q01DX009 (ip), vehicle: saline): 104 % of control
T/C (dose: 0.78 mg/kg/injection, schedule: Q01DX009 (ip), vehicle: saline): 100 % of control
T/C (dose: 1.56 mg/kg/injection, schedule: Q01DX009 (ip), vehicle: saline): 102 % of control
T/C (dose: 3.12 mg/kg/injection, schedule: Q01DX009 (ip), vehicle: saline): 108 % of control

Cc1oc2c(C)c3oc(=O)cc(C)c3cc2c1CCl
T/C [1]: 102 % of control
T/C [2]: 101 % of control
T/C [3]: 95 % of control

O=C(O)CC(=O)O.[NH-]C1CCCCC1[NH-].[Pt+2] (configuration not stated)
T/C (dose: 12.5 mg/kg/injection, schedule: Q01DX009 (ip), vehicle: dextrose): 117 % of control
T/C (dose: 25.0 mg/kg/injection, schedule: Q01DX009 (ip), vehicle: dextrose): 88 % of control

CN(N=O)C(=O)N[C@@H](C=O)[C@@H](O)[C@H](O)[C@H](O)CO
T/C (dose: 16.0 mg/kg/injection, schedule: Q01DX009 (ip), vehicle: other): 109 % of control
T/C (dose: 25.0 mg/kg/injection, schedule: Q01DX009 (ip), vehicle: citric acid): 110 % of control
T/C (dose: 32.0 mg/kg/injection, schedule: Q01DX009 (ip), vehicle: other): 98 % of control
T/C (dose: 64.0 mg/kg/injection, schedule: Q01DX009 (ip), vehicle: other): 112 % of control
T/C (dose: 100.0 mg/kg/injection, schedule: Q01DX009 (ip), vehicle: citric acid): 124 % of control
T/C (dose: 128.0 mg/kg/injection, schedule: Q01DX009 (ip), vehicle: other): 109 % of control

OCC1(CO)COC2(CCCCC2)N1
T/C (dose: 12.5 mg/kg/injection, schedule: Q01DX009 (ip), vehicle: saline): 102 % of control
T/C [4]: 100 % of control
T/C [5]: 102 % of control
T/C [6]: 100 % of control
T/C [7]: 101 % of control
T/C (dose: 400.0 mg/kg/injection, schedule: Q01DX009 (ip), vehicle: saline): 103 % of control

CCN1/C(=C/C=C/C=C\C=C\c2sc3ccc4ccccc4c3[n+]2CC)Sc2ccc3ccccc3c21
T/C (dose: 0.08 mg/kg/injection, schedule: Q01DX009 (ip), vehicle: saline with Tween-80): 101 % of control
T/C (dose: 0.16 mg/kg/injection, schedule: Q01DX009 (ip), vehicle: saline with Tween-80): 104 % of control
T/C (dose: 0.31 mg/kg/injection, schedule: Q01DX009 (ip), vehicle: saline with Tween-80): 98 % of control
T/C (dose: 0.62 mg/kg/injection, schedule: Q01DX009 (ip), vehicle: saline with Tween-80): 104 % of control
T/C (dose: 1.25 mg/kg/injection, schedule: Q01DX009 (ip), vehicle: saline with Tween-80): 105 % of control
T/C (dose: 2.5 mg/kg/injection, schedule: Q01DX009 (ip), vehicle: saline with Tween-80): 105 % of control

O=C(O)CC(=O)O.[NH-]CC[NH-].[Pt+2]
T/C (dose: 6.25 mg/kg/injection, schedule: Q01DX009 (ip), vehicle: saline): 111 % of control
T/C [4]: 156 % of control

CS(C)=O
T/C (dose: 1.5 grams/kg/injection, schedule: Q01DX009 (ip), vehicle: saline): 98 % of control
T/C (dose: 3.0 grams/kg/injection, schedule: Q01DX009 (ip), vehicle: saline): 96 % of control
T/C (dose: 6.0 grams/kg/injection, schedule: Q01DX009 (ip), vehicle: saline): 96 % of control

c1ccc([I+]c2ccccc2)cc1
T/C (dose: 1.0 mg/kg/injection, schedule: Q01DX009 (ip), vehicle: saline): 98 % of control
T/C (dose: 2.0 mg/kg/injection, schedule: Q01DX009 (ip), vehicle: saline): 100 % of control
T/C (dose: 4.0 mg/kg/injection, schedule: Q01DX009 (ip), vehicle: saline): 109 % of control

CC(=O)OC/C=C(C)/C=C/C=C(C)/C=C/C1=C(C)CCCC1(C)C
T/C (dose: 6.25 mg/kg/injection, schedule: Q01DX005 (ip), vehicle: saline with Tween-80): 115 % of control
T/C (dose: 12.5 mg/kg/injection, schedule: Q01DX005 (ip), vehicle: saline with Tween-80): 91 % of control
T/C (dose: 25.0 mg/kg/injection, schedule: Q01DX005 (ip), vehicle: saline with Tween-80): 97 % of control
T/C (dose: 50.0 mg/kg/injection, schedule: Q01DX005 (ip), vehicle: saline with Tween-80): 97 % of control
T/C (dose: 100.0 mg/kg/injection, schedule: Q01DX005 (ip), vehicle: saline with Tween-80): 98 % of control
T/C (dose: 200.0 mg/kg/injection, schedule: Q01DX005 (ip), vehicle: saline with Tween-80): 104 % of control

O=c1cc[nH]c(=O)[nH]1
T/C (dose: 32.0 mg/kg/injection, schedule: Q01DX009 (ip), vehicle: Klucel (hydroxypropylcellulose) (HPC)): 105 % of control
T/C (dose: 64.0 mg/kg/injection, schedule: Q01DX009 (ip), vehicle: Klucel (hydroxypropylcellulose) (HPC)): 96 % of control
T/C (dose: 128.0 mg/kg/injection, schedule: Q01DX009 (ip), vehicle: Klucel (hydroxypropylcellulose) (HPC)): 102 % of control
T/C (dose: 256.0 mg/kg/injection, schedule: Q01DX009 (ip), vehicle: Klucel (hydroxypropylcellulose) (HPC)): 86 % of control
T/C (dose: 512.0 mg/kg/injection, schedule: Q01DX009 (ip), vehicle: Klucel (hydroxypropylcellulose) (HPC)): 111 % of control

O=C(Nc1cccc(Cl)c1)ON1C(=O)C2C(C1=O)C1(Cl)C(Cl)C(Cl)C2(Cl)C1(Cl)Cl (configuration not stated)
T/C [3]: 98 % of control
T/C [8]: 87 % of control

C1CCC2[N-]CC3CCCCC3[N-]CC3CCCCC3[N-]CC3CCCCC3[N-]CC2C1.[Cu] (configuration not stated)
T/C (dose: 0.78 mg/kg/injection, schedule: Q01DX009 (ip), vehicle: Klucel (hydroxypropylcellulose) (HPC)): 106 % of control
T/C (dose: 3.13 mg/kg/injection, schedule: Q01DX009 (ip), vehicle: Klucel (hydroxypropylcellulose) (HPC)): 112 % of control
T/C (dose: 6.25 mg/kg/injection, schedule: Q01DX009 (ip), vehicle: Klucel (hydroxypropylcellulose) (HPC)): 113 % of control

CCCCCCCCCCCCCCCCCCNC(=S)N/N=C/c1ccc(Cl)cc1Cl
T/C [9]: 110 % of control
T/C [8]: 108 % of control
T/C [10]: 93 % of control

O=C1CCCCC1C(=O)C(F)(F)F (configuration not stated)
T/C (dose: 50.0 mg/kg/injection, schedule: Q01DX009 (ip), vehicle: saline + Tween-80 + alcohol): 100 % of control

ClC1(c2ccccc2)c2ccc(Br)cc2-c2cc(Br)ccc21
T/C [2]: 102 % of control
T/C [3]: 105 % of control
T/C [9]: 110 % of control

Cn1cnc([N+](=O)[O-])c1Sc1nc(N)nc2c1ncn2C1OC(CO)C(O)C1O (configuration not stated)
T/C (dose: 0.78 mg/kg/injection, schedule: Q01DX009 (ip), vehicle: saline with Tween-80): 97 % of control
T/C (dose: 1.56 mg/kg/injection, schedule: Q01DX009 (ip), vehicle: saline with Tween-80): 116 % of control
T/C (dose: 3.13 mg/kg/injection, schedule: Q01DX009 (ip), vehicle: saline with Tween-80): 105 % of control
T/C (dose: 6.25 mg/kg/injection, schedule: Q01DX009 (ip), vehicle: suspension in saline): 107 % of control

O=C1C=CC(=O)O1 (tested in a mixture with another compound)
T/C [4]: 101 % of control
T/C [5]: 94 % of control
T/C [6]: 103 % of control
T/C [7]: 95 % of control

CC(Oc1ccccc1-c1ccccc1)C(=O)N(C)C (configuration not stated)
T/C [1]: 118 % of control
T/C [2]: 95 % of control
T/C [3]: 113 % of control
T/C [9]: 93 % of control
T/C [8]: 113 % of control
T/C [10]: 114 % of control

CC/C(=C(/CC)c1ccc(O)cc1)c1ccc(O)cc1
T/C (dose: 12.5 mg/kg/injection, schedule: Q01DX009 (ip), vehicle: water): 123 % of control
T/C (dose: 25.0 mg/kg/injection, schedule: Q01DX009 (ip), vehicle: water): 102 % of control
T/C (dose: 50.0 mg/kg/injection, schedule: Q01DX009 (ip), vehicle: water): 102 % of control
T/C (dose: 100.0 mg/kg/injection, schedule: Q01DX009 (ip), vehicle: water): 106 % of control
T/C (dose: 200.0 mg/kg/injection, schedule: Q01DX009 (ip), vehicle: water): 120 % of control

Reference: PubChem BioAssay AID274 (DTP/NCI, 2004)
